This is an account of results in ChEMBL document CHEMBL1201862, “PubChem BioAssay data set” (2004).

Assay [1] is described as follows: Counterscreen for […] of the human trace amine associated receptor 1 (TAAR1): Fluorescence-based cell-based high throughput dose response assay to identify nonselective Ga16 agonists. In kind it is functional. On the technique in general: Counterscreens check selectivity or assay interference.
The nature of assay [2]: Counterscreen for antagonists of the human trace amine associated receptor 1 (hTAAR1): Fluorescence-based cell-based high throughput dose response assay to identify nonselective Ga16 antagonists. In kind it is functional.
A short description of assay [3]: HEK293T cell cytotoxicity, dose response, cytotoxicity control for HIV Vif inhibitor project, cherry-picks (AID 652208). In kind it is functional, cell-based.
Another assay has as its system Vero. As to the kind of experiment: Vero cell toxicity, dose response, cytotoxicity control, plate reader, cherry-pick samples (AID 687020). The following applies: Chlorocebus sabaeus. In kind it is functional, cell-based.
Assay [4] in a line: HEK293T cytotoxicity, dose response, cytotoxicity control for miR-122 modulator project, cell-based, inhibitor set, cherry-pick, set 2 (AID 720697). In kind it is functional.
Assay [5] concerns the target Photoreceptor-specific nuclear receptor (Homo sapiens, UniProt Q9Y5X4). In kind it is functional, cell-based.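 Further: CHO-S cells with Gal4-NCOR and VP16-NR2E3 two-hybrid luciferase reporter.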
The nature of assay [6]: cells. In kind it is functional, cell-based.
Assay [7] has as its target Nuclear receptor subfamily 0 group B member 1 (Homo sapiens, UniProt P51843). In kind it is functional, cell-based.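 Further: HEK293T cells transfected with SF-1 and DAX-1 plus StAR promoter luciferase reporter.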
Assay [8] deals with T1, Oxysterols receptor LXR-beta (Homo sapiens, UniProt P55055).
T1 sequence (P55055 whole entry): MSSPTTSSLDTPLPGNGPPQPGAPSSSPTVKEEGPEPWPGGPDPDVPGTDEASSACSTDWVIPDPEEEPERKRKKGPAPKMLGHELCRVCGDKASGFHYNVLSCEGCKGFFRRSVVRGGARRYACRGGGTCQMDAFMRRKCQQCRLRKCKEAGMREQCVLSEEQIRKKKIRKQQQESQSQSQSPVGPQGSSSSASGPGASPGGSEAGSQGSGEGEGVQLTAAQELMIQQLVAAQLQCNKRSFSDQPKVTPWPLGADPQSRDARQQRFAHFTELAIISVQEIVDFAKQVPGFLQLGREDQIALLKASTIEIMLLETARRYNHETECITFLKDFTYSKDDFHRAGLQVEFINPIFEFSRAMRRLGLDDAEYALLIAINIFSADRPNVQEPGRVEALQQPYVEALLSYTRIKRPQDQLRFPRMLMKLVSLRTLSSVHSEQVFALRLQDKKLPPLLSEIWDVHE
In kind it is functional, cell-based.

The nature of assay [9]: cells.
The test system of the next assay is Cryptococcus neoformans. Kind of assay: PubChem AID 686997. In kind it is functional, organism-based.
In assay [10] the target is Long-chain-fatty-acid--AMP ligase FadD28 (Mycobacterium tuberculosis, UniProt P9WQ59). As to the kind of experiment: Fluorescence polarization aasay to screen for inhibitors that compete for the binding of FadD28 to a bisubstrate Measured in Biochemical System Using Plate Reader - 2147-01_Inhibitor_Dose_CherryPick_Activity. In kind it is functional, Mycobacterium tuberculosis H37Rv. (In general: Polarisation of emitted light reports the rotation of a fluorescent probe.)
Sequence of Long-chain-fatty-acid--AMP ligase FadD28 (P9WQ59 whole entry): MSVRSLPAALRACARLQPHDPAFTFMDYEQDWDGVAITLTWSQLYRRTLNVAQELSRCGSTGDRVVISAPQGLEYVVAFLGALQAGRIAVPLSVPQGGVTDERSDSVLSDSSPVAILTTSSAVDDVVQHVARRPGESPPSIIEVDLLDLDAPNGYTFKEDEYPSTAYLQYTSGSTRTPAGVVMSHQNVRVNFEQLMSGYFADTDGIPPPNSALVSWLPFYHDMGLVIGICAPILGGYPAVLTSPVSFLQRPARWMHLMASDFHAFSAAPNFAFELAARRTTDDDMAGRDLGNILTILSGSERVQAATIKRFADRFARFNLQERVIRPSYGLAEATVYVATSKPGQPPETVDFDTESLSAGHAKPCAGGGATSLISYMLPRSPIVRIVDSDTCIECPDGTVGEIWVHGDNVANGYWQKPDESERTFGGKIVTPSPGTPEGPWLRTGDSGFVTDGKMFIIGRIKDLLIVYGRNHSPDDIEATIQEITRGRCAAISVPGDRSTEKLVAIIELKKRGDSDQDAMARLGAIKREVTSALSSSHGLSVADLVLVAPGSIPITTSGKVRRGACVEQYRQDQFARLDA

The target in the next assay is Mu-type opioid receptor (Homo sapiens, UniProt P35372). In kind it is functional, cell-based.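 Further: U2OS cells with beta-arrestin recruitment to OPRM1 by beta-gal complementation.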
Sequence of Mu-type opioid receptor (P35372 whole entry): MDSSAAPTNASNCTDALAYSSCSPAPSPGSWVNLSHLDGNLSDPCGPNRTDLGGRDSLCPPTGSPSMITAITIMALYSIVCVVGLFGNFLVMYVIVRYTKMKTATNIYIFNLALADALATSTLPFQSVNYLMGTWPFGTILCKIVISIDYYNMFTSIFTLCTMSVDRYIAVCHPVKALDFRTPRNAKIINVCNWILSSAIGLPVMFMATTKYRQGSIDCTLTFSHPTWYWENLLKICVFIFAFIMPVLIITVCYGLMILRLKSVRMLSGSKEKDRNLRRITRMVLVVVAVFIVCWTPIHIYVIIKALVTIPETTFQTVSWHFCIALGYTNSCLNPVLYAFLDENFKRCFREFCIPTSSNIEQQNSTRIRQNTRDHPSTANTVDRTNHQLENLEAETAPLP
In assay [11] the target is 5-hydroxytryptamine receptor 2A (Mus musculus, UniProt P35363). In kind it is functional, cell-based.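 Further: CHO-K1 cells with tagged receptor and beta-arrestin; agonist potency measured as compound-induced activation of the receptor.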
Sequence of 5-hydroxytryptamine receptor 2A (P35363 whole entry): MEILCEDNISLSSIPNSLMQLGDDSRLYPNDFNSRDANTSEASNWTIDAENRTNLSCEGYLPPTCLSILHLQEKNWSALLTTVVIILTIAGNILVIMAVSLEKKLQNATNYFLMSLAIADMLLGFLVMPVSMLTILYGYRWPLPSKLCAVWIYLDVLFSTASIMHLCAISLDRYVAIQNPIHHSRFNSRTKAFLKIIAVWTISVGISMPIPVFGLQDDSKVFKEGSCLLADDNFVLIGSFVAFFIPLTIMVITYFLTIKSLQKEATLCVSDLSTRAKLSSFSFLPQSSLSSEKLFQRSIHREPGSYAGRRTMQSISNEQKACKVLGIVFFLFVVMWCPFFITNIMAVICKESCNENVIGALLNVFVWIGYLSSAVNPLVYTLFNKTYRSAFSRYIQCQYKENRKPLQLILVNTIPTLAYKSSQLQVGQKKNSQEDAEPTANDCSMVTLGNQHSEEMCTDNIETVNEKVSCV
The target in assay [12] is Potassium channel subfamily K member 9 (Homo sapiens, UniProt Q9NPC2). As to the kind of experiment: TASK3 (KCNK9) channel inhibitors, thallium flux, SAR follow-up, selectivity assay for TASK1 inhibitor project, cell-based, FluxOR thallium flux, concentration-response (AID 652211).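 Further: potency is for inhibitors of the channel.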 In kind it is functional.
Sequence of Potassium channel subfamily K member 9 (Q9NPC2 whole entry): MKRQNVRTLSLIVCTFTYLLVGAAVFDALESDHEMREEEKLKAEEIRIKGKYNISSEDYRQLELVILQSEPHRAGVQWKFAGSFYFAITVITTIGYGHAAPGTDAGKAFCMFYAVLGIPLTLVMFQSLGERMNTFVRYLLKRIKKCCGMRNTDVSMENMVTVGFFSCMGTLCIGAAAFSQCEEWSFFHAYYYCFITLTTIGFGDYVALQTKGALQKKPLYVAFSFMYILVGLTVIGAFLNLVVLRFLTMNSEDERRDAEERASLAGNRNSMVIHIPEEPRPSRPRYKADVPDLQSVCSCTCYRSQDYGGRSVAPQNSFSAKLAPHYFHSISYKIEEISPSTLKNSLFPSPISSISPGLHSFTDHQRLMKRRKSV
Assay [13] is described as follows: cells. In kind it is functional, cell-based. This is another data set of the same source.
Assay [14] can be described thus: cells. In kind it is functional, cell-based. The source holds these as a separate data set.
A short description of assay [15]: cytotoxicity in HEK-293T cells, dose response, cytotoxicity control for TCR NF-kB inhibitor project, luminescence, T-cell screen hits (AID 489026).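 Further: cells exposed to compound about 14 hours before the viability readout.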 In kind it is functional, cell-based.
Assay [16] has as its target T2, Heat shock factor protein 1 (Mus musculus, UniProt P38532).
T2 sequence (P38532 whole entry): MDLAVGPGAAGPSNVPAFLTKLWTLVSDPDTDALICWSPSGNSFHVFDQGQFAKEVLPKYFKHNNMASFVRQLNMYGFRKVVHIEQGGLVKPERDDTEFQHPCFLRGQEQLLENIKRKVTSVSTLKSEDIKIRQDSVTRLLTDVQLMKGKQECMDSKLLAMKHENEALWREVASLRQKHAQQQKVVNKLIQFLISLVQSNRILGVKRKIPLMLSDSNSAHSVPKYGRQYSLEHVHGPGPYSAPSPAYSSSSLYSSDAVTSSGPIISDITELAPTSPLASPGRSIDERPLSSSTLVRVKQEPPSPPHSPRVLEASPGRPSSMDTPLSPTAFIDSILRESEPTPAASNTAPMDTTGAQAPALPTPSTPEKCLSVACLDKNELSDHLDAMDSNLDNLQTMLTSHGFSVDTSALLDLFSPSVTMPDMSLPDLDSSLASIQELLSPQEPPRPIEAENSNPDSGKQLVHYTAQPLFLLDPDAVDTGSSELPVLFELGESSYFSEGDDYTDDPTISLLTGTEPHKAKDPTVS
As to the kind of experiment: HSF1 potentiators in luciferase reporter cells, confirmation, cell-based, NIH3T3, luminescence, dose retest (AID 435004).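 Further: stress induced by proteasome inhibitor MG132 added 30 min after compound; luciferase reporter driven by HSF1 response element in NIH3T3 cells; actives raise luminescence as potentiators of the MG132 stress response.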 In kind it is functional. (In general: In a reporter assay the amount or activity of a reporter protein is the signal.)

For a further assay, the system named is BJ. As to the kind of experiment: cytotoxicity toward Ras-transformed BJeLR fibroblasts, dose response, cell-based, alamar blue fluorescence, cherrypicked samples (AID 2631).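 Further: confirmatory dose-response assay in RAS-dependent BJ fibroblasts engineered with TERT, LT and ST, with cytotoxicity read by fluorescence.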 In kind it is functional. The following applies: Homo sapiens.
Another assay deals with INS1. Kind of assay: beta cell apoptosis inhibitors, cytokine rescue, dose response, luminescence, retest (AID 449756).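 Further: cell death triggered by IL-1 beta plus TNF-alpha plus IFN-gamma mixture; protective hits raise ATP signal compared with cytokine alone wells.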 In kind it is functional, cell-based. The following applies: Rattus norvegicus.
The subject of another assay is P388/ADR. As to the kind of experiment: cells. In kind it is functional. The following applies: Mus musculus.
In another assay the test system is SN12K1. As to the kind of experiment: cells. The following applies: Homo sapiens. In kind it is functional.
The next assay relates to P388. As to the kind of experiment: cells. The following applies: Mus musculus. In kind it is functional.
The nature of assay [17]: inhibitors of HIV Env-driven cell fusion, dose response, cherry-pick (AID 652057). In kind it is functional, cell-based.
A short description of assay [18]: CEM21 lymphoblast cell cytotoxicity, dose response, cytotoxicity control for viral fusion inhibitor project, CellTiter-Glo luminescence, cherry-picked (AID 652042).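 Further: potency for signal decrease meaning cytotoxicity.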 In kind it is functional, cell-based.
Assay [19] in a line: ZM109 Env clade C HIV-1 fusion inhibitors, dose response, HeLa effector, CEM target cells, luciferase, cherry-pick (AID 652058). In kind it is functional, cell-based.
Another assay addresses Paired box protein Pax-8 (Homo sapiens, UniProt Q06710). As to the kind of experiment: inhibitors of PAX8-driven TPO luciferase reporter, dose response, RMG-I cells, cherry-pick (AID 687027).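 Further: luciferase reporter driven by Pax8 target thyroperoxidase promoter measured by SteadyGlo luminescence.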 In kind it is functional, cell-based.
Assay [20] is described as follows: off-target signal loss in HeLa-CEM21 co-culture – HeLa F-luc CTL cells, cherry-picked, counter-screen for HIV-1 Env fusion inhibitor project, dose response (AID 652040).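 Further: potency for signal decrease marking cytotoxic or nonspecific inhibition.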 In kind it is functional, cell-based.
Assay [21] is described as follows: inhibitors of clade B AD8 Env fusion, dose response, cell-based, cherry-pick (AID 652062).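 Further: luciferase signal from cell-cell fusion driven by HIV-1 clade B AD8 Env; potency is for inhibitors of fusion seen as a drop in luminescence.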 In kind it is functional.

Calls of active or inactive are those of the source.

Sequence of Photoreceptor-specific nuclear receptor (Q9Y5X4 whole entry, the tested form may be a part): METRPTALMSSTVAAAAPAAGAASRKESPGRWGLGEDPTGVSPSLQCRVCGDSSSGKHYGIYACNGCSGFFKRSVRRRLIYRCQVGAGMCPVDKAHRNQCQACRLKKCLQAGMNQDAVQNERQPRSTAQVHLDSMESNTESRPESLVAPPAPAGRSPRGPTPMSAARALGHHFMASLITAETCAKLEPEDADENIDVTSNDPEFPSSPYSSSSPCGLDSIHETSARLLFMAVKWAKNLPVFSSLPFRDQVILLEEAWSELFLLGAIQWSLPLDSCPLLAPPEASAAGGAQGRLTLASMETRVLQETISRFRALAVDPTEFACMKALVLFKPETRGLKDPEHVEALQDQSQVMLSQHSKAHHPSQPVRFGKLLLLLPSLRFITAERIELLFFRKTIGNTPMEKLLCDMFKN
Sequence of Paired box protein Pax-8 (Q06710 whole entry, the tested form may be a part): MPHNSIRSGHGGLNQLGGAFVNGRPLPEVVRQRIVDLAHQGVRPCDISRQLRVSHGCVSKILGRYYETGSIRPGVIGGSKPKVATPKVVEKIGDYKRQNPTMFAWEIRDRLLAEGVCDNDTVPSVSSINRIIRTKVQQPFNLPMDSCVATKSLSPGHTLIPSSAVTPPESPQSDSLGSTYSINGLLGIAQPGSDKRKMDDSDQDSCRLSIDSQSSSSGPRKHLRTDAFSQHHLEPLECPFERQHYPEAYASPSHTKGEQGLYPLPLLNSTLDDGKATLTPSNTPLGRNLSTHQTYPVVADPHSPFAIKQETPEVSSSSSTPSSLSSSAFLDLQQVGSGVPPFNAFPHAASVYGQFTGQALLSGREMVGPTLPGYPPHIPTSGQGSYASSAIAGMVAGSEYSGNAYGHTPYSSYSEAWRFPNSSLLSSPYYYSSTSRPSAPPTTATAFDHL
Sequence of Nuclear receptor subfamily 0 group B member 1 (P51843 whole entry): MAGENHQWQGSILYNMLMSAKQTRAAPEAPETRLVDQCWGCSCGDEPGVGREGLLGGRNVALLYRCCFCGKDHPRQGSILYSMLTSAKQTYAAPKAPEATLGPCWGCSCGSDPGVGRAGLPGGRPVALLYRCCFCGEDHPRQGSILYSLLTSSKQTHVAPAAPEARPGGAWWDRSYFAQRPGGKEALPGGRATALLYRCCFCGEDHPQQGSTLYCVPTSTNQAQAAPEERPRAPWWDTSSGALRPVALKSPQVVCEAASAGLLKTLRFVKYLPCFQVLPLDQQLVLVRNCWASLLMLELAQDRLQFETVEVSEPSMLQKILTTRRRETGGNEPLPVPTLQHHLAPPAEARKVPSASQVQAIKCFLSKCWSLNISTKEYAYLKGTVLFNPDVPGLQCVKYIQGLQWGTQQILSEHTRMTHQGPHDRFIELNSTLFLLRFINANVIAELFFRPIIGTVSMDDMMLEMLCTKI

For orientation: EC50 means the concentration at which the effect is half-maximal. For orientation: IC50 means the concentration that gives 50% inhibition. As for `Cc1nn(Cc2c(F)c(F)c(F)c(F)c2F)c(C)c1NC(=O)c1ccc(COc2ccccc2Cl)cc1`, in assay [1], the EC50 was > 29.9 µM (inactive). Also, the IC50 in assay [2] is > 29.9 µM (inactive).

The AC50 is the concentration giving half of the maximal activity seen. Take `Cc1cc2cc(C#N)c(SCC(=O)Nc3nonc3C)nc2cc1C`: the AC50 in [3] was 34.9 µM (active).

On to `O=C(COc1ccccc1)Nc1ccc(N2CCN(C(=O)c3cccs3)CC2)cc1`, for which the AC50 with Vero is 35.4 µM (active).

With `O=C(c1ccco1)c1cn(Cc2ccccc2Cl)c2ccccc12`, the AC50 in [4] is 9.08 µM (active).

`Cc1ccnc(NC(=O)Cc2ccc(-c3ccccc3)cc2)c1`: the IC50 is 0.741 µM (active) in assay [5], > 67.5 µM (inactive) in the assay “cells [6]” and > 67.5 µM (inactive) in assay [7]. For the same compound, the EC50 (in assay [8]; in the assay “cells [9]”) was > 67.5 µM (inactive) each time.

As to `COCCN1C(=S)N[C@@H](c2ccccc2)C(C(=O)OC)=C1C`, the AC50 in the assay on Cryptococcus neoformans was > 84 µM (inactive).

Turning to `Cc1cccc(NC(=O)Cn2c(=O)oc3ccccc32)n1`, the AC50 in [10] was 27.9 µM (active).

As for `CN1C[C@H](CO)C[C@@H]2c3cccc4[nH]cc(c34)C[C@H]21`, the EC50 was 92.5 µM (inactive) at Mu-type opioid receptor and 0.0819 µM (active) in [11].

Take `CCOc1ccccc1C(=O)Nc1cccc(NC(=O)c2ccccc2OC)c1`: the half-maximal inhibitory concentration (IC50) in assay [12] is 1.98 µM (active).

As usually defined, the GI50 is the concentration at which growth is held to half of that of the control. Take `CC[C@@]1(O)C(=O)OCc2c1cc1n(c2=O)Cc2cc3c(N)cccc3nc2-1` [9-AMINOCAMPTOTHECIN]: the concentration giving a half-maximal response (EC50) in the assay “cells [13]” was > 350 µM (not active); in the assay “cells [14]”, > 350 µM (not active); in assay [16], > 260 µM (inconclusive); in the assay on BJ it was 0.00718 µM (active). Besides, the IC50 was > 80 µM (inactive) in [15] and 0.896 µM (active) in assay [5]. In addition, the concentration at half-maximal activity (AC50) was 2.13 µM (active) in the assay on INS1; < 0.26 µM (active) in assay [17]; 2.47 µM (active) in assay [18]; 0.463 µM (active) in assay [19]; < 0.26 µM (active) on Paired box protein Pax-8; < 0.26 µM (active) in assay [20]. In addition, the concentration at half-maximal activity (AC50) in [21] is 0.348 µM (active). The results for the GI50 with P388/ADR, in the assay on SN12K1 and in the assay on P388 were < 0.0174 µM (active), < 0.0227 µM (active) and < 0.0119 µM (active), respectively.
